Measurements reported in PubChem BioAssay (NCI).
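Assay format: 96-well plates, 48-hour exposure. GI50 marks 50% less growth. TGI: total growth inhibition.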

Columns and labels:
Assay in all cases: NCI-60 cell line screen, 48 h
786-0 renal = system: 786-0 renal
COLO 205 colon = system: COLO 205 colon
HOP-62 NSCLC = system: HOP-62 NSCLC
MCF7 breast = system: MCF7 breast
NCI-H23 lung = system: NCI-H23 lung
NCI-H522 lung = system: NCI-H522 lung
OVCAR-3 ovarian = system: OVCAR-3 ovarian
OVCAR-8 ovarian = system: OVCAR-8 ovarian
SN12C renal = system: SN12C renal
SNB-19 CNS = system: SNB-19 CNS

Compound | GI50 (786-0 renal) [µM] | TGI (786-0 renal) [µM] | GI50 (COLO 205 colon) [µM] | TGI (COLO 205 colon) [µM] | GI50 (HOP-62 NSCLC) [µM] | TGI (HOP-62 NSCLC) [µM] | GI50 (MCF7 breast) [µM] | TGI (MCF7 breast) [µM] | GI50 (NCI-H23 lung) [µM] | TGI (NCI-H23 lung) [µM] | GI50 (NCI-H522 lung) [µM] | TGI (NCI-H522 lung) [µM] | GI50 (OVCAR-3 ovarian) [µM] | TGI (OVCAR-3 ovarian) [µM] | GI50 (OVCAR-8 ovarian) [µM] | TGI (OVCAR-8 ovarian) [µM] | GI50 (SN12C renal) [µM] | TGI (SN12C renal) [µM] | GI50 (SNB-19 CNS) [µM] | TGI (SNB-19 CNS) [µM]
Cn1nc(C(F)(F)F)cc1-c1c[nH]c(OCc2ccc(Cl)cc2)c(-c2ccc(Cl)c(C(F)(F)F)c2)c1=O | 1.25 | 4.37 | 0.935 | 1.97 | 1.3 | 3.55 | 1.22 | > 50 | 1.05 | 5.95 | 0.552 | 6.15 | 1.19 | 19.5 | 1.19 | > 50 | 0.755 | 6.95 | 1.63 | > 50
CCNC(=O)Nc1ccc(Oc2ccnc3ccc4c(ccn4C)c23)cc1 | 35.5 | 96.7 | 29.8 | > 100 | 46.9 | > 100 | 37.9 | > 100 | > 100 | > 100 | 43.8 | > 100 | 19.7 | 42.2 | 23 | > 100 | 20.9 | 43.8 | 40.1 | > 100
N=N/C(=C\c1c(O)[nH]c2ccccc12)c1ccccc1 | – | > 77 | – | 54.6 | – | 99.8 | – | > 100 | – | > 87.8 | – | 86.7 | – | 44.2 | – | > 57.5 | – | > 94.7 | – | > 92.9
CN(C)CCCCC(C(=O)CBr)(c1ccccc1)c1ccccc1 | 2.12 | 4.37 | 1.78 | 3.95 | 8.06 | 23.6 | 1.5 | 3.25 | 2.81 | 10.8 | 1.25 | 3.4 | 1.37 | 2.69 | 2.52 | 8.48 | 1.98 | 5.07 | 7.43 | 23.9
COc1ccc(Cn2cc3c(c2-c2ccccc2)CCc2cnoc2-3)cc1OC | 2.24 | > 100 | 0.55 | 3.81 | 1.34 | > 100 | 0.574 | > 100 | 1.46 | > 100 | 0.229 | 0.801 | 0.332 | 0.884 | 3.48 | > 100 | 5.16 | > 100 | 2.79 | > 100
COc1cc(/C(=C2/O[C@@H]([C@H]3COC(C)(C)O3)[C@H]3OC(C)(C)O[C@@H]23)c2ccc3ccccc3c2)cc(OC)c1OC | 2.3 | 4.47 | 6.97 | > 100 | 9.78 | 31.4 | 3.59 | 14.4 | 5.43 | > 100 | 2.27 | 6.54 | 2.39 | 5.67 | 3.89 | > 100 | 3.65 | > 100 | 2.49 | 6.08
COCCNc1ccc2c3c(cccc13)C(=O)N(CCN(C)C)C2=O | 9.13 | > 25 | 2.74 | 12.5 | 7.55 | > 25 | 6.5 | 23.4 | 8.04 | > 25 | 4.06 | 12.4 | 8.65 | > 25 | 6.85 | > 25 | 7.23 | > 25 | 4.11 | > 25
